Experiment [1] relates to Neisseria gonorrhoeae. Kind of experiment: Antimicrobial activity against Neisseria gonorrhoeae ATCC 49226 after 16 hrs by disk susceptibility test. Format: functional.
Experiment [2] concerns Staphylococcus aureus. Kind of experiment: Antimicrobial activity against Staphylococcus aureus ATCC 29213 after 16 hrs by disk susceptibility test. Format: functional.
The subject of experiment [3] is Candida albicans. Kind of experiment: Antimicrobial activity against Candida albicans ATCC 90028 up to 100 ug/disk after 42 hrs by disk susceptibility test. Format: functional, organism-based.
Experiment [4] has as its system Cryptococcus neoformans. Kind of experiment: Antimicrobial activity against Cryptococcus neoformans ATCC 90112 up to 100 ug/disk after 42 hrs by disk susceptibility test. The format is functional, organism-based.
Experiment [5] has as its system Enterococcus faecalis. Kind of experiment: Antimicrobial activity against Enterococcus faecalis ATCC 29212 after 16 hrs by disk susceptibility test. Format: functional.
Experiment [6] concerns Escherichia coli. Kind of experiment: Antimicrobial activity against Escherichia coli ATCC 25922 up to 100 ug/disk after 16 hrs by disk susceptibility test. The format is functional, organism-based.

Experimental findings from ChEMBL document CHEMBL1158253, “Isolation and structure of hemibastadinols 1-3 from the Papua New Guinea marine sponge Ianthella basta” (1996) are described below.

Calls of active or inactive are those of the source. The rule behind the calls is not given here.

On to `COc1ccc(C/C(=N/O)C(=O)NCCc2ccc(O)c(Br)c2)cc1Br`, for which the MIC in experiment [1] and in experiment [2] was 6.25 µg in each case. Moreover, the outcome in experiment [3] and in experiment [4] was inactive.
Consider `O=C(NCCc1ccc(O)c(Br)c1)/C(Cc1cc(Br)c(O)c(Oc2c(Br)cc(C/C(=N\O)C(=O)NCCc3ccc(O)c(Br)c3)cc2Br)c1)=N\O` [BASTADIN 2], for which the values for the MIC in experiment [1], in experiment [5] and in experiment [2] were 50 µg, 50 µg and 6.25 µg, respectively. Besides, the result in experiment [3] and in experiment [4] was inactive.
`O=C1NCCc2cc(Br)c(O)c(c2)Oc2ccc(cc2Br)CCNC(=O)/C(=N\O)Cc2cc(Br)c(O)c(c2)Oc2c(Br)cc(cc2Br)C/C1=N/O` [BASTADIN 5]: the MIC in experiment [1] came to 50 µg; in experiment [5], 50 µg; in experiment [2] it was 12.5 µg. For the same compound, the result in experiment [3] and in experiment [4] was inactive.
Regarding `O=C(NCCc1ccc(O)c(Br)c1)/C(Cc1cc(Br)c(O)c(-c2cc(C/C(=N/O)C(=O)NCCc3ccc(O)c(Br)c3)cc(Br)c2O)c1)=N\O` [BASTADIN 3], the results for the MIC in experiment [1], in experiment [5] and in experiment [2] were 0.78 µg, 3.12 µg and 1.56 µg, respectively. The outcome in experiment [3] and in experiment [4] was inactive.
Consider `O=C(NCCc1ccc(O)c(Br)c1)/C(Cc1ccc(Oc2cc(C/C(=N/O)C(=O)NCCc3ccc(O)c(Br)c3)cc(Br)c2O)c(Br)c1)=N\O` [BASTADIN1], for which the outcome in experiment [6], in experiment [3] and in experiment [4] was inactive. Moreover, the MIC in experiment [1] was 50 µg; in experiment [5] it was 12.5 µg; in experiment [2], 6.25 µg.
Consider `O=C(NCCc1ccc(O)c(Br)c1)[C@@H](O)Cc1ccc(O)c(Br)c1` [HEMIBASTADINOL 1], for which the MIC in experiment [1] and in experiment [5] was 50 µg throughout. Moreover, the outcome in experiment [3] and in experiment [4] was inactive.
On to `O=C(NCCc1ccc(O)c(Br)c1)/C(Cc1cc(Br)c(O)c(Br)c1)=N\O` [HEMIBASTADIN 2], for which the MIC in experiment [1] and in experiment [2] was 3.12 µg throughout. Besides, the result in experiment [3] and in experiment [4] was inactive.
For `O=C(NCCc1ccc(O)c(Br)c1)/C(Cc1ccc(O)c(Br)c1)=N\O` [HEMIBASTADIN 1], the MIC is 12.5 µg in experiment [1], 50 µg in experiment [5] and 1.56 µg in experiment [2]. Also, the outcome in experiment [3] and in experiment [4] was inactive.
Turning to `O=C1NCCc2cc(Br)c(O)c(c2)Oc2c(Br)cc(cc2Br)CCNC(=O)/C(=N/O)Cc2cc(Br)c(O)c(c2)Oc2c(Br)cc(cc2Br)C/C1=N\O` [BASTADIN 6], the MIC in experiment [5] was 12.5 µg; in experiment [2], 6.25 µg. In addition, the result in experiment [3] and in experiment [4] was inactive.
`O=C1N/C=C/c2ccc(c(Br)c2)Oc2cc(cc(Br)c2O)CCNC(=O)/C(=N/O)Cc2cc(Br)c(c(Br)c2)Oc2cc(cc(Br)c2O)C/C1=N\O` [BASTADIN 4]: the MIC in experiment [1] came to 12.5 µg; in experiment [5], 50 µg; in experiment [2], 12.5 µg. Further, the result in experiment [3] and in experiment [4] was inactive.
With `NC(=O)C(=O)NCCc1ccc(O)c(Br)c1`, the MIC in experiment [1] was found to be 10 µg. In addition, the outcome in experiment [3] and in experiment [4] was inactive.
